In one data set the test system is HIV-IIIb. Briefly: Antiviral assay in MT-2 / MT-4 cells infected with HIV-IIIb (CellTiter-Glo readout). It is filed as cell-based. The settings on record: MT4, 120 h, 5 days, MT-2 or MT-4 cells not given. How it is done: For the antiviral assay utilizing MT-2 cells, 50 μl of 2× test concentration of 5-fold serially diluted compound in culture medium with 10% FBS was added to each well of a 96-well plate (9 concentrations) in triplicate. MT-2 cells were infected with HIV-IIIb at a multiplicity of infection (m.o.i) of 0.01 for 3 hours. Fifty microliters of infected cell suspension in culture medium with 10% FBS (˜1.5×10^4 cells) was then added to each well containing 50 μl of diluted compound. The plates were then incubated at 37° C. for 5 days. For the antiviral assay utilizing MT-4 cells, 20 μl of 2× test concentration of 5-fold serially diluted compound in culture medium with 10% FBS was added to each well of a 384-well plate (7 concentrations) in triplicate. MT-4 cells were next mixed with HIV-IIIb at an m.o.i. of 0.1 and 20 μl of virus/cell mixture (˜2000 cells) was immediately added to each well containing 20 μl of diluted compound. The plates were then incubated at 37° C. for 5 days. After 5 days of incubation, 100 μl of CellTiter-Glo™ Reagent (catalog #G7571, Promega Biosciences, Inc., Madison, Wis.) was added to each well containing MT-2 cells and 40 μl to each well containing MT-4 cells. Cell lysis was carried out by incubation at room temperature for 10 min and chemiluminescence was read.

The nature of data set [1]: Cytotoxicity assessment in uninfected MT-2 / MT-4 cells. It is filed as cell-based. The settings on record: human, MT-2 or MT-4 cells not given. The procedure: For compound cytotoxicity assessment in MT-2 cells, the protocol was identical to that of the antiviral assay in MT-2 cells, except that uninfected cells and a 3-fold serial dilution of compounds were used. For cytotoxicity assessment in MT-4 cells, the protocol is identical to that of the antiviral assay in MT-4 cells, except that no virus was added. Cytotoxicity is expressed as CC50.

The structures appear in SMILES notation.

In the case of `Cc1[nH]c(=O)c(C(C)C)c(C(=O)c2cc(C#N)cc(C#CCO)c2)c1CC1CC1` [Example 12, 3-(5-Cyclopropylmethyl-3-isopropyl-6-methyl-2-oxo-1,2-dihydro-pyridine-4-carbonyl)-5-(3-hydroxy-prop-1-ynyl)-benzonitrile], the EC50 in the data set with HIV-IIIb was < 0.1 µM.

Consider `Cc1cc(C#N)cc(C(=O)c2c(CC3CC3)c(CO)[nH]c(=O)c2C(C)C)c1` [Example 13, 3-(5-Cyclopropylmethyl-6-hydroxymethyl-3-isopropyl-2-oxo-1,2-dihydro-pyridine-4-carbonyl)-5-methyl-benzonitrile], for which the EC50 with HIV-IIIb is < 0.1 µM. As to `CC(C)c1c(C(=O)c2cc(C#N)cc(C#N)c2)c(CC2CC2)c(CO)[nH]c1=O` [Example 14, 5-(5-Cyclopropylmethyl-6-hydroxymethyl-3-isopropyl-2-oxo-1,2-dihydro-pyridine-4-carbonyl)-isophthalonitrile], in the data set on HIV-IIIb, the EC50 is < 0.1 µM. As to `Cc1cc(C#CCO)cc(C(=O)c2c(CC3CC3)c(C)[nH]c(=O)c2C(C)C)c1` [Example 11, 5-(cyclopropylmethyl)-4-(3-(3-hydroxyprop-1-ynyl)-5-methylbenzoyl)-3-isopropyl-6-methylpyridin-2 (1H)-one], the EC50 in the data set on HIV-IIIb is < 0.1 µM.

`Cc1[nH]c(=O)c(C(C)C)c(C(=O)c2cc(C#N)cc(C#N)c2)c1CC1CC1` [Example 2, 5-(5-Cyclopropylmethyl-3-isopropyl-6-methyl-2-oxo-1,2-dihydro-pyridine-4-carbonyl)-isophthalonitrile] had a melting point of 266 to 267 °C. Further, the EC50 in the data set on HIV-IIIb is < 0.1 µM. Consider `Cc1[nH]c(=O)c(C(C)C)c(C(=O)c2cc(C#N)cc(C(N)=O)c2)c1CC1CC1` [Example 10, 3-Cyano-5-(5-cyclopropylmethyl-3-isopropyl-6-methyl-2-oxo-1,2-dihydro-pyridine-4-carbonyl)-benzamide], for which, in the data set on HIV-IIIb, the EC50 is < 0.1 µM. Same read-out and setting: then `Cc1cc(C#N)cc([S+]([O-])c2c(CC3CC3)c(C)[nH]c(=O)c2C(C)C)c1` (stereo not shown) [Example 8, 3-(5-(cyclopropylmethyl)-3-isopropyl-6-methyl-2-oxo-1,2-dihydropyridin-4-ylsulfinyl)-5-methylbenzonitrile], with < 0.1 µM; and `Cc1cc(C#N)cc(C(=O)c2c(CC3CC3)c(CC#N)[nH]c(=O)c2C(C)C)c1` [Example 15, 3-(6-Cyanomethyl-5-cyclopropylmethyl-3-isopropyl-2-oxo-1,2-dihydro-pyridine-4-carbonyl)-5-methyl-benzonitrile], with < 0.1 µM. Turning to `Cc1cc(C#N)cc(C(=O)c2c(CC3(CO)CC3)c(C)[nH]c(=O)c2C(C)C)c1` [Example 5, 3-[5-(1-Hydroxymethyl-cyclopropylmethyl)-3-isopropyl-6-methyl-2-oxo-1,2-dihydro-pyridine-4-carbonyl]-5-methyl-benzonitrile], in the data set on HIV-IIIb, the concentration for a half-maximal effect (EC50) was < 0.1 µM. The same measure, in the same setting: next, `Cc1cc(C#N)cc(Sc2c(CC3CC3)c(C)[nH]c(=O)c2C(C)C)c1` [Example 7, 3-(5-(cyclopropylmethyl)-3-isopropyl-6-methyl-2-oxo-1,2-dihydropyridin-4-ylthio)-5-methylbenzonitrile]: < 0.1 µM. In the case of `Cc1cc(C#N)cc(S(=O)(=O)c2c(CC3CC3)c(C)[nH]c(=O)c2C(C)C)c1` [Example 9, 3-(5-Cyclopropylmethyl-3-isopropyl-6-methyl-2-oxo-1,2-dihydro-pyridine-4-sulfonyl)-5-methyl-benzonitrile], the half-maximal cytotoxic concentration (CC50) at 5 days in data set [1] is > 69 µM. The concentration for a half-maximal effect (EC50) in the data set with HIV-IIIb is < 0.1 µM. In turn, `Cc1cc(C#N)cc(C(=O)c2c(CC3CC3)c(C)[nH]c(=O)c2C(C)C)c1` [Example 1, 3-(5-Cyclopropylmethyl-3-isopropyl-6-methyl-2-oxo-1,2-dihydro-pyridine-4-carbonyl)-5-methyl-benzonitrile] showed a melting point of 222 to 224 °C. Besides, in the data set on HIV-IIIb, the EC50 is < 0.1 µM.

Regarding `Cc1[nH]c(=O)c(C(C)C)c([S+]([O-])c2cc(C#N)cc(C#N)c2)c1CC1CC1` (stereo not shown) [Example 6, 5-(5-Cyclopropylmethyl-3-isopropyl-6-methyl-2-oxo-1,2-dihydro-pyridin-4-sulfinyl)-isophthalonitrile], the 50% cytotoxic concentration (CC50) at 5 days in data set [1] is > 100 µM. Also, the concentration for a half-maximal effect (EC50) in the data set with HIV-IIIb was < 0.1 µM.

In turn, `Cc1[nH]c(=O)c(C(C)C)c(C(=O)c2cc(Cl)cc(C#N)c2)c1CC1CC1` [Example 3, 3-Chloro-5-(5-cyclopropylmethyl-3-isopropyl-6-methyl-2-oxo-1,2-dihydro-pyridine-4-carbonyl)-benzonitrile] yielded a melting point of 237 to 238 °C. For the same molecule, the EC50 with HIV-IIIb is < 0.1 µM.

Source of the values: patent US20110184029A1, “PYRIDONE DERIVATIVES AS NON-NUCLEOSIDE REVERSE TRANSCRIPTASE INHIBITORS” (KOREA RESEARCH INSTITUTE OF CHEMICAL TECHNOLOGY, priority 2008, published 2011).
